Calls of active or inactive are those of the source. The rule behind the calls is not given here.
Target: T1, Nuclear factor erythroid 2-related factor 2 (Homo sapiens) (UniProt Q16236)
T1 sequence (whole entry): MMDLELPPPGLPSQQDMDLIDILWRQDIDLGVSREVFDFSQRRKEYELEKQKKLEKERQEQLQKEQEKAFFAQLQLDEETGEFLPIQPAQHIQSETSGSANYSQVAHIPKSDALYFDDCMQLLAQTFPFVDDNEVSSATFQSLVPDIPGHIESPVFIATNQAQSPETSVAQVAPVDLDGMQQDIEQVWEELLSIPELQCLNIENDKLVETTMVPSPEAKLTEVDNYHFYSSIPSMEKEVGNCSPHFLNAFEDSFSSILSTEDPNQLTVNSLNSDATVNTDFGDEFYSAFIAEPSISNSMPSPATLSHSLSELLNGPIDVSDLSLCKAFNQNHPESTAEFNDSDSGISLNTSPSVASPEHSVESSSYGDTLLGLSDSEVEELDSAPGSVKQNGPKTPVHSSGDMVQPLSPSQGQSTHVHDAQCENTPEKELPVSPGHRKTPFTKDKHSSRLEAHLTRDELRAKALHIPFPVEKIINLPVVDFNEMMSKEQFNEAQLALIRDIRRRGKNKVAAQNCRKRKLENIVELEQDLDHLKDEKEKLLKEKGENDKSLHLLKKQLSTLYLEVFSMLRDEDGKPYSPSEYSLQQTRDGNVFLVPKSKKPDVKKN
Experiment: Agonist activity at Nrf2 (unknown origin) at 10 uM by dual-luciferase reporter gene assay
Conditions: filed as agonist

| Structure (SMILES) | fold change (FC) |
| --- | --- |
| CC(C)(C)c1cc(O)ccc1O | 1.7 |

Target: T1, Nuclear factor erythroid 2-related factor 2 (Homo sapiens)
Experiment: Agonist activity at Nrf2 (unknown origin) at 20 uM by dual-luciferase reporter gene assay
Conditions: filed as agonist

| Structure (SMILES) | fold change (FC) |
| --- | --- |
| COc1ccc(-c2cc3cc(Br)c4c(c3oc2=O)CCC(C)(C)O4)cc1 | 1.53 |
| CC1(C)CCc2c(c(Br)cc3cc(-c4ccc(F)cc4)c(=O)oc23)O1 | 1.26 |
| CC1(C)CCc2c(c(Br)cc3cc(-c4ccc(C(F)(F)F)cc4)c(=O)oc23)O1 | 2.04 |
| CC(C)=CCc1c(OC(=O)NCCc2c[nH]c3ccc(Cl)cc23)ccc2ccc(=O)oc12 | 0.79 |
| CC1(C)CCc2c(c(Br)cc3cc(-c4cccc(C(F)(F)F)c4)c(=O)oc23)O1 | 1.52 |
| COc1ccc2[nH]cc(CCNC(=O)Oc3ccc4ccc(=O)oc4c3CC=C(C)C)c2c1 | 0.98 |
| CC(C)=CCc1c(OC(=O)NCCc2c[nH]c3ccccc23)ccc2ccc(=O)oc12 | 0.95 |
| CC(C)=CCc1c(OC(=O)Cc2c[nH]c3ccccc23)ccc2ccc(=O)oc12 | 1.55 |
| CC1(C)CCc2c(c(Br)cc3cc(-c4ccc(OC(F)(F)F)cc4)c(=O)oc23)O1 | 1.69 |
| COc1ccc2c(CC(C)NC(=O)Oc3ccc4ccc(=O)oc4c3CC=C(C)C)c[nH]c2c1 (centres undefined) | 0.73 |
| COc1ccc2[nH]cc(CC(=O)Oc3ccc4ccc(=O)oc4c3CC=C(C)C)c2c1 | 1.59 |
| CC(C)=CCc1c(OC(=O)Cc2c[nH]c3cc(Cl)ccc23)ccc2ccc(=O)oc12 | 1.65 |
| CC(C)=CCc1c(OC(=O)NCCc2c(C)[nH]c3ccccc23)ccc2ccc(=O)oc12 | 0.61 |
| CC1(C)CCc2c(c(Br)cc3cc(-c4ccccc4)c(=O)oc23)O1 | 2.57 |
| CC(C)=CCc1c(OC(=O)NCCc2c[nH]c3ccc(C)cc23)ccc2ccc(=O)oc12 | 0.95 |
| COc1ccc2c(CC(=O)Oc3ccc4ccc(=O)oc4c3CC=C(C)C)c[nH]c2c1 | 1.51 |
| COc1cccc(-c2cc3cc(Br)c4c(c3oc2=O)CCC(C)(C)O4)c1 | 1.41 |
| CC(C)=CCc1c(OC(=O)Cc2c[nH]c3ccc(C)cc23)ccc2ccc(=O)oc12 | 1.51 |
| Cc1ccc(-c2cc3cc(Br)c4c(c3oc2=O)CCC(C)(C)O4)cc1 | 1.61 |
| COc1ccccc1-c1cc2cc(Br)c3c(c2oc1=O)CCC(C)(C)O3 | 1.58 |
| CC(C)=CCc1c(OC(=O)Cc2c(C)[nH]c3ccccc23)ccc2ccc(=O)oc12 | 1.51 |
| COc1ccc2[nH]c(C)c(CC(=O)Oc3ccc4ccc(=O)oc4c3CC=C(C)C)c2c1 | 1.56 |
| CC(C)=CCc1c(OC(=O)Cc2c[nH]c3ccc(Br)cc23)ccc2ccc(=O)oc12 | 1.41 |
| COc1ccc2ccc(=O)oc2c1CC=C(C)C | 1.18 |

Target: T2, Nuclear factor erythroid 2-related factor 2 (Homo sapiens, UniProt Q16236)
T2 sequence (Q16236 whole entry): T1 sequence (whole entry)
Experiment: Activation of Nrf2 in HEK293T cells
Type: cell-based
Conditions: not given

| Structure (SMILES) | EC50 |
| --- | --- |
| CC1(C)CCc2c(c(Br)cc3cc(-c4ccc(C(F)(F)F)cc4)c(=O)oc23)O1 | 4.55 µM |
| CC1(C)CCc2c(c(Br)cc3cc(-c4ccccc4)c(=O)oc23)O1 | 2.9 µM |

Target: Kelch-like ECH-associated protein 1 (Homo sapiens) (UniProt Q14145)
Experiment: Binding affinity to Keap1 in human A549 cells assessed as thermal stabilization by measuring change in melting temperature at 10 uM by cellular thermal shift assay
Type: cell-based
Conditions: not given

Sequence of Kelch-like ECH-associated protein 1 (Homo sapiens) (Q14145 whole entry): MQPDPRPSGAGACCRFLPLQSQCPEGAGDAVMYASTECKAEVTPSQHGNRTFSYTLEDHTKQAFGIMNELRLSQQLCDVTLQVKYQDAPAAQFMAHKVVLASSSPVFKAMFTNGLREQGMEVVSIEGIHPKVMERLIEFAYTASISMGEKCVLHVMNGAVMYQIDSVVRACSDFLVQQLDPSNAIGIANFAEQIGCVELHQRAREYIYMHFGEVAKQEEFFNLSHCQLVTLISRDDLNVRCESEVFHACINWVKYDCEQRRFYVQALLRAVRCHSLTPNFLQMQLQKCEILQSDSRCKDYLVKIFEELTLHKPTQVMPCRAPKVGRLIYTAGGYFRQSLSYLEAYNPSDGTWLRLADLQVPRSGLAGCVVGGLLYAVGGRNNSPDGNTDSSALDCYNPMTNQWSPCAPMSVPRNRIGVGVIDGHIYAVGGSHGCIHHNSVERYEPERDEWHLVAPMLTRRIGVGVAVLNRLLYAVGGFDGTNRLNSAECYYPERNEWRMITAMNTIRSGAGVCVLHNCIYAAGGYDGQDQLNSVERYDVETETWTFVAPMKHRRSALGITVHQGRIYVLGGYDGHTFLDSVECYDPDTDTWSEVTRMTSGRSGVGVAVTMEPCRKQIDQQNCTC

| Structure (SMILES) | Activity |
| --- | --- |
| CC1(C)CCc2c(c(Br)cc3cc(-c4ccccc4)c(=O)oc23)O1 | Active |

Target: Keap1/Nrf2 (Homo sapiens) (UniProt Q16236+Q14145)
Experiment: Inhibition of Keap1-Nrf2 protein-protein interaction in human A549 cells assessed as reduction in Nrf2 ubiquitination by immunoprecipitation analysis
Type: cell-based
Conditions: not given

Sequence of Keap1/Nrf2 (Homo sapiens) (Q14145 whole entry, looked up, one chain of several): as the sequence (Q14145 whole entry) above

| Structure (SMILES) | inhibition |
| --- | --- |
| CC1(C)CCc2c(c(Br)cc3cc(-c4ccccc4)c(=O)oc23)O1 | Active |

From ChEMBL document CHEMBL5131442, “Design and synthesis of Osthole-based compounds as potential Nrf2 agonists” (Bioorg Med Chem Lett, 2022)
